Assay results published in patent publication US20220204497A1, “NOVEL COMPOUND HAVING ANTICANCER ACTIVITY, AND METHOD FOR PRODUCING SAME” (MEDICINAL BIOCONVERGENCE RESEARCH CENTER, priority 2019, published 2022).

Legend:
A549 cells = test: Cell viability by MTT method in A549 cells; type: cell-based; design: concentration or dose not given beside the values; details: 72 hours treatment
H460 cells = test: In vivo anti-cancer efficacy in mice transplanted with H460 cells; design: species or system mouse; details: 50 mg/kg intraperitoneally once every two days, 15 days
Description: FIGS. 3a to 3d are the results of observing the tumor growth while administering compound No. 63 (50 mg/kg) once every two days intraperitoneally for a total of 15 days to a mouse transplanted with H460 cells. (FIG. 3a: macroscopic observation of each mouse and tumor after the end of administration, FIG. 3b: tumor growth curve over time, FIG. 3c: the weight of each tumor obtained at the end of administration, FIG. 3d: change in body weight of animals during administration period).
Next, the anti-cancer efficacy of compound No. 63 was evaluated in a mouse model transplanted with H460 cells.
Specifically, the compound No. 63 was intraperitoneally administered to mice transplanted with H460 cells at 50 mg/kg, once every two days for a total of 15 days.

AIMP2-DX2 = target: T1, AIMP2-DX2 (Homo sapiens, UniProt Q13155); test: DX2-nanoluciferase assay (DX2 expression change) in transfected A549 cells; details: for inhibition at 40 µM / inhibition at 10 µM: A549, 4 h; for inhibition at 40 µM: read-out: DX-Nanoluciferase activity (40 μM), 40 μM, 4 hours treatment, A549 cells transfected with nanoluciferase-DX2; for inhibition at 40 µM / DX-Nanoluciferase activity (40 μM): inhibitory effect on AIMP2-DX2 expression; for inhibition at 10 µM: read-out: DX-Nanoluciferase activity (10 μM), 10 μM, 4 hours treatment, A549 cells transfected with nanoluciferase-DX2; for DX-Nanoluciferase activity (40 μM) / DX-Nanoluciferase activity (10 μM): 4 hours treatment, A549 cells transfected with nanoluciferase-DX2
T1 sequence (Q13155 1-251 isoform Q13155-2): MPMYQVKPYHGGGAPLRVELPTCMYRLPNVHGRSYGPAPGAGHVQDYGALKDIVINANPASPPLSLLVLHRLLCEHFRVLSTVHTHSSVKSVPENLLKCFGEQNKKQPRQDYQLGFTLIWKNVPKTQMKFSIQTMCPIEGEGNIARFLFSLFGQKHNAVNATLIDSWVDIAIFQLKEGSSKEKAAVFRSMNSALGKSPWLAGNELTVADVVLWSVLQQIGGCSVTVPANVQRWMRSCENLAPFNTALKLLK
Description: After cloning DX2 into a plasmid expressing nanoluciferase, the plasmid was transfected into A549 cells. Transfected cells were seeded 1×10^4 per well in a 96-well plate and stabilized for 12 hours. […] Cell viability was measured by the MTT method after 72 hours of treatment with each concentration of the compound in A549 cells.

Structure (SMILES)	Cell Viability (% inhibition) (A549) (A549 cells) [%]	inhibition at 40 µM (AIMP2-DX2) [%]	further results
COc1ccc(-c2csc(NC(=O)[C@H](Cc3c[nH]c4ccccc34)NS(=O)(=O)c3ccc(C)cc3)n2)cc1 [Compound 63, (S)-3-(1H-indol-3-yl)-N-(4-(4-methoxyphenyl)thiazol-2-yl)-2-(4-methylphenylsulfonamido)propanamide]	86.53 ± 1.35	–	body weight of the animals during administration (H460 cells): no change in the body weight; tumor growth (H460 cells; H460 transplanted mice): significantly inhibited the growth of tumors
Cc1cc(C)cc(S(=O)(=O)N[C@@H](Cc2c[nH]c3ccccc23)C(=O)Nc2ccc(N3CCOCC3)cc2)c1 [Compound 66, (S)-2-(3,5-Dimethylphenylsulfonamido)-3-(1H-indol-3-yl)-N-(4 morpholinophenyl)propanamide]	77.25 ± 0.82	42.4 ± 3.97	–
Cc1ccc(S(=O)(=O)N[C@@H](Cc2c[nH]c3ccc(O)cc23)C(=O)Nc2ccc(N3CCOCC3)cc2)cc1 [Compound 69, (S)-3-(5-Hydroxy-1H-indol-3-yl)-2-(4-methylphenylsulfonamido)-N-(4-morpholinophenyl)propanamide]	20.62 ± 5.14	48.4 ± 11.6	–
COc1ccc(-c2csc(NC(=O)[C@H](Cc3c[nH]c4ccc(C)cc34)NS(=O)(=O)c3ccc(Br)cc3)n2)cc1 [Compound 218, (S)-2-(4-Bromophenylsulfonamido)-N-(4-(4-methoxyphenyl)thiazol-2-yl)-3-(5-methyl-1H-indol-3-yl)propanamide]	90.98 ± 1	–	inhibition at 10 µM (AIMP2-DX2): 34.8%
CC(C)C[C@H](NC(=O)c1ccc(C(C)(C)C)cc1)C(=O)OCc1ccccc1 [Compound 51, (S)-benzyl 2-(4-tert-butylbenzamido)-4-methylpentanoate]	11.62 ± 4.29	63.5 ± 4.5	–
Cc1ccc(S(=O)(=O)N[C@@H](Cc2c[nH]c3ccccc23)C(=O)NCCc2ccc(Cl)cc2)cc1 [Compound 225, (S)—N-(4-chlorophenethyl)-3-(1H-indol-3-yl)-2-(4-methylphenylsulfonamido)propanamide]	95.8 ± 0.48	–	inhibition at 10 µM (AIMP2-DX2): 88.7 ± 6.08%
CC(C)C[C@H](NC(=O)c1ccc(NC(=O)OC(C)(C)C)cc1)C(=O)OCc1ccccc1 [Compound 53, (S)-benzyl 2-(4-(tert-butoxycarbonylamino)benzamido)-4-methylpentanoate]	49.19 ± 13.33	43.7 ± 9.9	–
Cc1ccc(S(=O)(=O)N[C@@H](CC(C)C)C(=O)Nc2ccc(N3CCN(C(=O)OC(C)(C)C)CC3)nc2)cc1 [Compound 16, (S)-tert-butyl 4-(5-(4-methyl-2-(4-methylphenylsulfonamido)pentanamido)pyridin-2-yl)piperazine-1-carboxylate]	73.5	9.8	–
Cc1ccc(S(=O)(=O)N[C@@H](CC(C)C)C(=O)Nc2nc(-c3ccc(C(F)(F)F)cc3)cs2)cc1 [Compound 90, (S)-4-Methyl-2-(4-methylphenylsulfonamido)-N-(4-(4-(trifluoromethyl)phenyl)thiazol-2-yl)pentanamide]	86.36 ± 0.64	65.4 ± 4.13	–
O=C(NC12CC3CC(CC(C3)C1)C2)[C@H](Cc1c[nH]c2ccccc12)NS(=O)(=O)c1ccc(Br)cc1 [Compound 201, (S)—N((3R,5R,7R)-adamantan-1-yl)-2-(4-bromophenylsulfonamido)-3-(1H-Indol-3-yl)propanamide]	87.1 ± 0.46	–	DX-Nanoluciferase activity (40 μM) (AIMP2-DX2): 58.25 ± 4.09
Cc1ccc(S(=O)(=O)N[C@@H](CO)C(=O)N2CCOCC2)cc1 [Compound 39, (S)—N-(3-hydroxy-1-morpholino-1-oxopropan-2-yl)-4-methylbenzenesulfonamide]	−2.43 ± 0.94	7.7 ± 11.2	–
Cc1ccc(CCNC(=O)[C@H](Cc2c[nH]c3ccccc23)NS(=O)(=O)c2ccc(C)cc2)cc1 [Compound 223, (S)-3-(1H-indol-3-yl)-N-(4-methylphenethyl)-2-(4-methylphenylsulfonamido)propanamide]	93.28 ± 1.51	–	inhibition at 10 µM (AIMP2-DX2): 34.9 ± 11.8%
CC(C)C[C@H](NC(=O)Nc1ccccc1)C(=O)N1CCOCC1 [Compound 56, (S)-1-(4-Methyl-1-morpholino-1-oxopentan-2-yl)-3-phenylurea]	32.07	33 ± 10.7	–
COc1cc(N2CCNCC2)ccc1NC(=O)[C@H](Cc1c[nH]c2ccccc12)NS(=O)(=O)c1ccc(C)cc1 [Compound 121, (S)-3-(1H-indol-3-yl)-N-(2-methoxy-4-(piperazin-1-yl)phenyl)-2-(4-methylphenylsulfonamido)propanamide]	51.15 ± 0.5	–	inhibition at 10 µM (AIMP2-DX2): 41.7 ± 17.3%
Cc1ccc(S(=O)(=O)N[C@@H](CS)C(=O)N2CCOCC2)cc1 [Compound 41, (R)—N-(3-mercapto-1-morpholino-1-oxopropan-2-yl)-4-methylbenzenesulfonamide]	12.16 ± 6.14	52.5 ± 5.6	–
N[C@@H](Cc1c[nH]c2ccccc12)C(=O)Nc1ccc(N2CCOCC2)cc1 [Compound 160, (S)-2-Amino-3-(1-indol-3-yl)-N-(4-morpholinophenyl)propanamide]	15.52 ± 9.58	–	DX-Nanoluciferase activity (10 μM) (AIMP2-DX2): 14.92 ± 17.49 (10 μM)
Cc1ccc(S(=O)(=O)N[C@@H](Cc2c[nH]c3ccccc23)C(=O)N2CCOCCOCCOCC2)cc1 [Compound 105, (S)—N-(3-(1H-indol-3-yl)-1-oxo-1-(1,4,7-trioxa-10-azacyclododecan-10-yl)propan-2-yl)-4-methylbenzenesulfonamide]	29.36 ± 7.43	57.1 ± 1.56	–
Cc1ccc(C(=O)N[C@@H](Cc2c[nH]c3ccccc23)C(=O)Nc2ccc(N3CCOCC3)cc2)cc1 [Compound 129, (S)—N-(3-(1 Indol-3-yl)-1-(4-morpholinophenylamino)-1-oxopropan-2-yl)-4-methylbenzamide]	60.35 ± 3.98	–	DX-Nanoluciferase activity (40 μM) (AIMP2-DX2): 53.02 ± 9.60
O=C(Nc1nccs1)[C@H](Cc1c[nH]c2ccccc12)NS(=O)(=O)c1ccc(Br)cc1 [Compound 109, (S)-2-(4-Bromophenylsulfonamido)-3-(1H-indol-3-yl)-N-(thiazol-2-yl)propanamide]	4.14 ± 1.04	57.5 ± 9.11	–
Cc1ccc(S(=O)(=O)N[C@@H](Cc2c[nH]c3ccccc23)C(=O)NNC(=O)C23CC4CC(CC(C4)C2)C3)cc1 [Compound 186, N—((S)-1-(2-((3S,5S,7S)-adamantane-1-carbonyl)hydrazinyl)-3-(1H-indol-3-yl)-1-oxopropan-2-yl)-4-methylbenzenesulfonamide]	59.96 ± 10.37	–	DX-Nanoluciferase activity (10 μM) (AIMP2-DX2): 78.43 ± 6.05 (10 μM)
CC(=O)N1CCN(c2ccc(NC(=O)[C@H](Cc3c[nH]c4ccccc34)NS(=O)(=O)c3ccc(C)cc3)cc2)CC1 [Compound 162, (S)—N-(4-(4-Acetylpiperazin-1-yl)phenyl)-3-(1H-indol-3-yl)-2-(4-methylphenylsulfonamido)propanamide]	19.92 ± 16.25	–	inhibition at 10 µM (AIMP2-DX2): 20.6 ± 3.17%
CC(C)C[C@H](NS(=O)(=O)c1ccc2ccccc2c1)C(=O)Nc1ccc(N2CCOCC2)cc1 [Compound 26, (S)-4-methyl-N-(4-morpholinophenyl)-2-(naphthalene-2-sulfonamido)pentanamide]	5.95 ± 2.15	52.7 ± 10.5	–
Cc1ccc(S(=O)(=O)N[C@@H](CC(C)C)C(=O)Nc2nc(-c3ccc(F)cc3Br)cs2)cc1 [Compound 92, (S)—N-(4-(2-bromo-4-fluorophenyl)thiazol-2-yl)-4-methyl-2-(4-methylphenylsulfonamido)pentanamide]	100.05 ± 1.22	31.5 ± 6.84	–
CCOC(=O)c1ccc(S(=O)(=O)N[C@@H](Cc2c[nH]c3ccccc23)C(=O)Nc2ccc(N3CCOCC3)cc2)cc1 [Compound 114, (S)-Ethyl 4-(N-(3-(1H-indol-3-yl)-1-(4-morpholinophenylamino)-1-oxopropan-2-yl)sulfamoyl)benzoate]	47.88 ± 0.53	–	inhibition at 10 µM (AIMP2-DX2): 3.48 ± 8.58%
Cc1ccc(S(=O)(=O)N[C@@H](CC(C)C)C(=O)Nc2nc(-c3ccc(F)cc3)cs2)cc1 [Compound 94, (S)—N-(4-(4-fluorophenyl)thiazol-2-yl)-4-methyl-2-(4-methylphenylsulfonamido)pentanamide]	101.42 ± 0.79	11.5 ± 7.25	–
